Article PMC6301270 (MedChemComm, 2018)
Read-outs that look alike come from different tables or passages of the source.

Key:
[1] = system: T.b. brucei; parameters: method as in https://www.pathogenbox.org/; conditions: ref https://www.pathogenbox.org/, cited from earlier work; for IC50: Table 1, kinetoplastid category, read-out: T. brucei brucei IC50 (μM) Pathogen Box
[2] = system: HeLa cells; assay: HeLa cell assay (cytotoxicity); type: cell-based; conditions: Homo sapiens
Experimental: HeLa cells were cultured in DMEM medium supplemented with 10% fetal bovine serum and antibiotics (penicillin/streptomycin/amphotericin B) at 37 °C in a 5% CO2 incubator. On the day prior to compound addition, cells were plated in 96-well plates at 2 × 10^4 cells per well. Compounds were added to the cells in 3-fold serial dilutions and incubation at 37 °C in a 5% CO2 incubator continued for 48 hours. Twenty μl resazurin reagent (0.5 mM resazurin in phosphate-buffered saline) was added to each well and, after a 2-hour incubation, fluorescence (Exc560/Em590) was measured in a plate reader. Percentage cell viability in drug-treated wells was calculated from the fluorescent readings obtained relative to those in wells containing control, untreated cells. Plots of % cell viability vs. log[compound] were used to determine IC50 values by non-linear regression analysis using GraphPad Prism.

[3] = system: T.b. brucei (strain 427) bloodstream form parasites; assay: Trypanosoma brucei assay, dose–response (this study); type: cell-based; conditions: for IC50: Trypanosoma brucei
[4] = system: T.b. brucei (strain 427) bloodstream form parasites; assay: T.b. brucei single concentration screen (10 μM); conditions: for viability at 10 µM: Trypanosoma brucei, read-out: T.b.brucei % viability (10 µM); for T.b.brucei % viability (10 µM): single concentration 10 µM, % parasite viability relative to non-treated parasites
[5] = system: T.b. brucei; parameters: method as in PMID 28674055; conditions: cited from earlier work; for IC50: Table 1, kinetoplastid category of the Pathogen Box, read-out: T. brucei brucei IC50 (μM) Duffy et al.
[6] = system: M. tuberculosis CTP synthase, PyrG; parameters: method as in PMID 28475832; conditions: cited from earlier work
[7] = Table 1, HeLa cells, 48 hours, resazurin, read-out: HeLa IC50
[8] = Table 1, kinetoplastid category, 48 hours at 37 °C, resazurin, read-out: T. brucei brucei IC50 (μM) This study
[9] = HeLa, 48 h, read-out: HeLa IC50 (μM)
[10] = Table 2, HeLa cells, 48 hours, resazurin, read-out: HeLa IC50
[11] = Table 2, remaining Pathogen Box, 48 hours at 37 °C, resazurin, read-out: T. brucei brucei IC50 (μM) This study

SMILES	IC50 [1]	IC50 [2, 7]	IC50 [3, 8]	viability at 10 µM [4]	other results
Cc1ccc(S(=O)(=O)Nc2ccc(CN3CCN(C(=O)c4cccc(C#N)c4)CC3)cc2)cc1 [Compound 11, O=C(N1CCN(CC2=CC=C(NS(=O)(C3=CC=C(C)C=C3)=O)C=C2)CC1)C4=CC(C#N)=CC=C4]	0.14 µM	> 25 µM	0.12 µM	6.6%	–
COc1ccc(C(=N)N)cc1-c1cn(-c2ccc(C(=N)N)cc2)nn1 [Compound 12, COc1ccc(cc1c2cn(nn2)c3ccc(cc3)C(=N)N)C(=N)N]	0.25 µM	> 25 µM	0.54 µM	9%	–
O=C(NCCc1ccn(-c2ccccc2)n1)C1CCCCC1 [Compound 13, O=C(NCCc1ccn(n1)c2ccccc2)C3CCCCC3]	0.15 µM	> 25 µM	0.21 µM	2%	–
CS(=O)(=O)c1ccccc1C(=O)N(Cc1ccccc1)c1ccccc1 [Compound 14, CS(=O)(=O)c1ccccc1C(=O)N(Cc2ccccc2)c3ccccc3]	0.56 µM	> 25 µM	1.2 µM	18%	–
COc1ccc(C2=NN(C3CCCCCC3)C(=O)[C@@H]3CC=CC[C@H]23)cc1OCCCCOc1ccc(-c2nnn[nH]2)cc1 [Compound 15, COC1=C(OCCCCOC2=CC=C(C3=NNN=N3)C=C2)C=C(C([C@@H]4[C@H]5CC=CC4)=NN(C6CCCCCC6)C5=O)C=C1]	0.02 µM	–	–	6%	IC50 [2, 9]: > 25 µM; IC50 ([3]; 48 h, read-out: T. brucei brucei IC50 (μM) This study): 0.12 µM
N=C(N)Nc1ccc(-c2ccc(-c3ccc(N=C(N)N)c(Cl)c3)o2)cc1Cl [Compound 16, NC(=N)Nc1ccc(cc1Cl)c2oc(cc2)c3ccc(N=C(N)N)c(Cl)c3]	0.6 µM	17 µM	0.65 µM	1.2%	–
CCC(=O)Nc1ccccc1C(=O)Nc1ccccn1 [Compound 17, CCC(=O)Nc1ccccc1C(=O)Nc2ccccn2]	2.46 µM	> 25 µM	0.38 µM	7%	–
COc1ccc(S(=O)(=O)Nc2ccc(CN3CCN(C(=O)c4cccc(C#N)c4)CC3)cc2)cc1 [Compound 18, O=C(N1CCN(CC2=CC=C(NS(=O)(C3=CC=C(OC)C=C3)=O)C=C2)CC1)C4=CC(C#N)=CC=C4]	0.5 µM	> 25 µM	0.44 µM	6.5%	–
CCCCN(CCCC)c1c(C#N)cc(S(=O)(=O)Nc2ccccc2)cc1C#N [Compound 19, CCCCN(CCCC)c1c(cc(cc1C#N)S(=O)(=O)Nc2ccccc2)C#N]	0.26 µM	> 25 µM	1.3 µM	6%	–
Cc1noc(C)c1COc1cccc(C(=O)N=c2[nH]cccc2C)c1 [Compound 20, Cc1onc(C)c1COc2cccc(c2)C(=O)Nc3ncccc3C]	2.07 µM	> 25 µM	0.62 µM	7%	–
CO[C@@H](C(=O)N1Cc2[nH]nc(NC(=O)c3ccc(N4CCN(C)CC4)cc3)c2C1)c1ccccc1 [Compound 21, CO[C@@H](C(=O)N1Cc2[nH]nc(NC(=O)c3ccc(cc3)N4CCN(C)CC4)c2C1)c5ccccc5]	1.02 µM	> 25 µM	0.3 µM	4.5%	–
CNC(=O)C1Cc2ccccc2N1C(=O)Cc1ccc(F)cc1 (stereo not drawn) [Compound 22, CNC(=O)C1Cc2ccccc2N1C(=O)Cc3ccc(F)cc3]	0.49 µM	> 25 µM	0.71 µM	7%	–
c1ccc(Oc2ccc(-c3cc(C4CCOCC4)[nH]n3)cc2)cc1 [Compound 23, C1CC(CCO1)c2cc(n[nH]2)c3ccc(Oc4ccccc4)cc3]	7.58 µM	–	–	82%	IC50 [5]: ≥ 1 µM; T.b.brucei % viability (10 µM) [4]: did not sufficiently reduce cell viability
Cc1nn2c(=O)c3c([nH]c2c1-c1ccc(Cl)cc1)CCCC3 [Compound 24, Cc1nn2C(=O)C3=C(CCCC3)Nc2c1c4ccc(Cl)cc4]	–	–	–	19%	IC50 [5]: ≥ 1 µM; T.b. brucei activity in words, Pathogen Box [1]: sub-micromolar range; T.b.brucei % viability (10 µM) [4]: did not sufficiently reduce cell viability
COc1ccc(C2=NN(C3CCCCCC3)C(=O)C2(C)C)cc1OCCCCOc1ccc(-c2nn[nH]n2)cc1 [Compound 25, COC1=C(OCCCCOC2=CC=C(C3=NNN=N3)C=C2)C=C(C4=NN(C5CCCCCC5)C(C4(C)C)=O)C=C1]	0.79 µM	> 25 µM	1.7 µM	8.5%	–
Cc1nn2c(O)c3c(nc2c1-c1ccc(F)cc1)CCCC3 [Compound 28, Cc1nn2c(O)c3CCCCc3nc2c1c4ccc(F)cc4]	1.94 µM	> 25 µM	4.6 µM	12%	–
CC1=Nc2ccc(Cl)cc2C(O)(c2ccc(C)cc2)N1CCN1CCCCC1 (stereo not drawn) [Compound 29, CC1=Nc2ccc(Cl)cc2C(O)(N1CCN3CCCCC3)c4ccc(C)cc4]	0.98 µM	15 µM	0.98 µM	2%	–
c1ccc(Oc2ccc(-c3cc(N4CCNCC4)[nH]n3)cc2)cc1 [Compound 30, C1CN(CCN1)c2cc(n[nH]2)c3ccc(Oc4ccccc4)cc3]	0.99 µM	11 µM	2.3 µM	0.3%	–
CN1CCN(S(=O)(=O)c2ccc(-c3ccc4c(Nc5ncc(Cl)cn5)ccnc4c3)cc2)CC1 [Compound 31, CN1CCN(CC1)S(=O)(=O)c2ccc(cc2)c3ccc4c(Nc5ncc(Cl)cn5)ccnc4c3]	3.78 µM	> 25 µM	2.2 µM	6.4%	–
CCOC(=O)c1noc(N)c1-c1ccccc1 [Compound 34, CCOC(=O)c1noc(N)c1c2ccccc2]	1.22 µM	> 25 µM	0.41 µM	12%	T.b. brucei activity in words, Pathogen Box [1]: low micromolar range; T.b. brucei inhibition in words, this study [3]: mid-nanomolar inhibitor
CC(Oc1ccccc1)C(=O)Nc1nc(-c2ccccn2)cs1 (stereo not drawn) [Compound 40, CC(Oc1ccccc1)C(=O)Nc2nc(cs2)c3ccccn3]	–	–	–	2%	Inhibition of M. tuberculosis CTP synthase, PyrG [6]: moderate inhibitors; IC50 [2, 10]: 8.4 µM; T.b. brucei inhibition in words, this study [3]: sub-micromolar range; IC50 [3, 11]: 0.76 µM; IC50 ([3]; pIC50 values (M), read-out: pIC50 (T.b. brucei), this study (converted)): < 1 µM
O=C(COc1cccc(F)c1)Nc1nc(-c2ccccn2)cs1 [Compound 43, Fc1cccc(OCC(=O)Nc2nc(cs2)c3ccccn3)c1]	–	–	–	3%	Inhibition of M. tuberculosis CTP synthase, PyrG [6]: moderate inhibitors; IC50 [2, 9]: > 25 µM
O=C(Nc1ccccc1)c1ccc(-c2cc3ccncc3cc2OC2CCNCC2)s1 [Compound 51, O=C(Nc1ccccc1)c2ccc(s2)c3cc4ccncc4cc3OC5CCNCC5]	–	–	–	1%	T.b. brucei inhibition in words, Duffy et al. [5]: moderate inhibition; IC50 [2, 10]: 7.5 µM; T.b. brucei inhibition in words, this study [3]: selectively inhibited T.b. brucei, albeit moderately; IC50 [3, 11]: 1 µM; Selectivity index ([3]; calculated as IC50(HeLa)/IC50(T.bb)): 7.5
O=C(Nc1ccc(C(F)(F)F)c(C(F)(F)F)c1)c1cc(Cl)ccc1O [Compound 66, Oc1ccc(Cl)cc1C(=O)Nc2ccc(c(c2)C(F)(F)F)C(F)(F)F]	–	–	–	42%	T.b. brucei inhibition in words, Duffy et al. [5]: sub-micromolar inhibitor
